Each structure is given as a SMILES string.

The results in this text go back to patent US11225657B2, “Synthetic auxotrophs with ligand dependent essential genes for biosafety” (priority 2015, dated 2022).

Common to all, as to format: cell-based, E. coli
One test deals with metG.GL15. Briefly: Chemical complementation of growth of ligand-dependent strain metG.GL15. Particulars: panel of 30 additional ligands. The method, then: (§1) A second positive selection at block 140 was performed in order to enrich for desirable ligand-dependent strains. Library members surviving the negative selection were collected, residual penicillin was washed away, and cells were spread onto LB agar plates containing complementing chemicals. Resulting colonies were screened at block 150 for ligand-dependent growth by replica-spotting onto LB agar plates with and without complementing chemicals. Strains that grew only in the presence of chemicals were chosen for further characterization.
(§2) In this example, the ligand-dependent strains were generated for 5 essential genes (pheS, dnaN, tyrS, metG, and adk). Each ligand-dependent strain carried between 3 and 7 mutations at the targeted essential gene (Table 1). A mixture of 4 small molecules was used to generate the ligand-dependent strains. Each resulting strain was tested against each small molecule individually. The most promiscuous strain, metG.GL15, was complemented by all 4 ligands. Other mutants responded to 2 or 3 ligands. Additionally, escape frequency was measured on media lacking any of the 4 ligands. The highest escape frequency was 8×10^−4 for adk.GL1, while the lowest escape frequency was 3×10^−9 for pheS.GL2.
To characterize the specificity of the produced ligand-dependent strains towards ligands, all strains were examined for complementation by a panel of 30 additional ligands. […]

The test system of the next test is pheS.GL2. Briefly: Chemical complementation of growth of ligand-dependent strain pheS.GL2. As to conditions: LB agar plates. As for the experimental part: as §1, §2
The ligand-dependent strain pheS.GL2 was derived from a directed evolution procedure using both targeted and random mutagenesis. […]

The subject of another test is tyrS.GL7. Briefly: Chemical complementation of growth of ligand-dependent strain tyrS.GL7. As for the experimental part:
as §1, §2
The ligand-dependent strain tyrS.GL7 and metG.GL15 were generated in under 2 weeks with a single cycle of protein engineering. […]

The subject of test [1] is rapamycin-dependent mutant (uniRapR insertion in dnaN). Briefly: Ligand-dependent growth of rapamycin-dependent dnaN-uniRapR insertion mutant at 42° C. As to conditions: for nonspecific chemical complementation (growth): plates with ligand instead of rapamycin. From the text:
Starting with a plasmid borne copy of wild type dnaN under constitutive expression, the uniRapR domain was inserted into 4 candidate insertion sites with a 3 amino acid linker library upstream and downstream of the uniRapR domain. The resulting libraries (all four insertion sites with their linker libraries) were pooled and transformed into a strain of E. coli with a mutation on the genomic copy of dnaN that made the protein temperature sensitive (dnaN protein from genome is non-functional at 42° C. and it is bactericidal lethal).
The transformants were grown at 42° C. (lethal temperature for genomic copy so as to force bacteria to rely on the plasmid copies with the uniRapR insertions) as well as with the addition of 10 uM rapamycin (to complement the function of any rapamycin-dependent insertional fusion dnaN mutants) and allowed to grow overnight.
The extracted plasmid DNA was re-transformed into fresh dnaN-temperature sensitive strains and grown on LB agar supplemented with rapamycin at 42° C. The next day colonies were picked and re-spotted onto LB agar plates with or without rapamycin and grown at 42° C. […] The biological replicates of a 10-fold serial dilution of the rapamycin-dependent mutant grown without rapamycin (clear columns) or with 2.5 micromolar rapamycin (columns with growth) were prepared. All growth took place at 42° C.

Test [2] has as its system dnaN-intein-iFKBP fusion mutants. As to the kind of experiment: Growth of dnaN-intein-iFKBP mutants with complementing ligands at 42° C. Particulars: LB agar. As for the experimental part:
A variety of saturation mutagenesis libraries targeting a combination of surface exposed and semi-buried residues on the intein structure were then designed, ignoring the iFKBP domain as well as the dnaN sequence. The resulting plasmid library was then transformed into dnaN-temperature sensitive strains (dnaN-temp sensitive on the genome). The resulting transformants were grown on LB agar plates containing 5 chemicals: rapamycin, saccharin, acetaminophen, raspberry ketone, and benzothiazole. These chemicals were chosen based on being either useful commercially or likely to result in the desired phenotype. As before the library was grown at 42° C. so that the strains would have to rely on the plasmid borne mutagenized copies of the dnaN-intein-iFKBP fusion proteins.
The next day the libraries were scraped, and transferred to fresh media for a penicillin technique counter selection performed exactly as described before with FIG. 2 and FIG. 3. After the negative selection, intact cells were mini-prepped and the DNA was re-transformed into fresh cells and the transformants were grown on the same chemicals as indicated above at 42° C.
The next day, colonies were picked, serially diluted tenfold and spotted onto plain LB agar plates and LB agar plates containing a pool of candidate complementing ligands and grown at 42° C. (to uncover phenotype of plasmid born copy of dnaN). […]

As to `O=C(O)Cc1c[nH]c2ccccc12` [Indole-3-acetic acid], the complementation of growth entry in the test with metG.GL15 is recorded as “complement”.
Still for that read-out and setting: the entry for `COC(=O)[C@@H](N)Cc1c[nH]cn1` [L-histidine methyl ester] is “complement”.
In the case of `c1ccc2scnc2c1` [benzothiazole], in the test on pheS.GL2 (1 mM benzothiazole), the complementation of growth result is “strongly complemented”. Also, the “concentration range of dose-dependent growth” value in the test with tyrS.GL7 fell in the range of 250 to 1000 µM. The “nonspecific chemical complementation (growth)” value in test [1] is listed as “no growth was detected”. For the same molecule, in test [2], the “colony size relative to no ligand (by eye)” value is reported as 2-5 times.
As to `c1ccc2[nH]ccc2c1` [indole], the complementation of growth entry was “strongly complemented” in the test with pheS.GL2 (0.5 mM indole) and “complemented” with tyrS.GL7. Further, the “nonspecific chemical complementation (growth)” value in test [1] is “no growth was detected”.
Turning to `CO[C@H]1C[C@@H]2CC[C@@H](C)[C@@](O)(O2)C(=O)C(=O)N2CCCC[C@H]2C(=O)O[C@H]([C@H](C)C[C@@H]2CC[C@@H](O)[C@H](OC)C2)CC(=O)[C@H](C)/C=C(\C)[C@@H](O)[C@@H](OC)C(=O)[C@H](C)C[C@H](C)/C=C/C=C/C=C/1C` [rapamycin], the “rapamycin concentration of highest activity (dose-dependent growth)” value in test [1] (42° C.) fell in the range of 1 to 10 µM.
